Test results taken from patent publication US20080193505A1, “Nutritional Compositions For Modulating Vitamin C Bio-Availability” (Nestec S.A., priority 2005, published 2008).

Columns and labels:
SVCT1 = experiment: Real-time PCR in-vitro test of SVCT1 gene expression in primary keratinocytes; type: cell-based, human; conditions: for influence on expression: NHEK, 10 μM; for transcription of SVCT1 mRNA: summary statement in description
Method: Confluent primary keratinocytes (NHEK) were treated with a test compound or subsequently used for reverse transcription and real-time PCR analysis of SVCT1 and SVCT2. 18S-rRNA and GAPDH mRNA analysis served as endogenous control (housekeeping genes).
Primary adult epidermal keratinocytes (NHEK) for Cambrex Company (USA, Ordering number: CC-2501) have been used in this study. They were grown in KGM medium (Cambrex Company, USA, Ordering number: CC-3101 and CC-4131) on fibronectin and collagen type I coated plastic dishes (6- or 12-well plates) at 37° C. and 5% CO2 and expanded until passage 4 where they were used for further experiments.
NHEK cells at passage 4 were seated in 6 well plates at a density of 5000 cells/cm2, determined by means of a Thoma chamber under a light microscope. Cells were grown to 100% confluence within 5-6 days with medium changed every second day and were further used for in vitro-test for gene expression as depicted schematically in FIG. 1.
After removal of the supernatant the cells were rinsed twice with Dubellco's phophate buffered saline (PBS, Sigma, Germany), cells were lysed with 350 μl of a lysis buffer (Buffer RL, Qiagen AG, Basel, Switzerland) containing 1% β-mercaptoethanol (Sigma, USA) and total RNAs from cell lysates were extracted using the QIAshredder column and the RNeasy® Mini Kit (Qiagen AG, Basel, Switzerland). RNA quantification was performed using the Ribogreen® RNA quantitation Kit (Molecular Probes, USA) on 96-well plates and a fluorescence microplate reader (Spectra fluor plus F 129005, Tecan). The measurements were done in duplicate. The samples were diluted either 1:680 or 1:3400 in a final volume of 100 μl 1×TE buffer. Dilutions of the ribosomal RNA in a concentration of 1, 0.5, 0.1, 0.02, 0 μg/ml were used as standards and the measurement was performed by fluorimetry at 485 nm and 538 nm. RNA quantification was then calculated compared to the standard curve. Integrity of RNA was controlled using agarose gel electrophoresis (1% agarose in TBE: 90 mM Tris/HCl pH 8.0, 80 mM Boric acid, 3 mM EDTA in ddH2O).
For reverse transciption 2 μl pd(N)6 random hexamers (Amersham Biosciences, Art. n° 272080, England) and 1 μl dNTP (10 mM, Amersham Biosciences, Art. n° 272050, −60, −70, −80, England) were added to 2 μg RNA in nuclease-free water (Ambion, USA) in a final volume of 12 μl. After 5 min incubation at 65° C., samples were immediately placed on ice and quickly centrifuged. Then, 4 μl of 5× first strand buffer (250 mM NaCl, 0.1 mM EDTA, 1 mM DTT, 0.1% (V/v) NP-40, 50% (v/v) glycerol), 2 μl of dithiothreitol, 1 μl of RNase inhibitor and 1 μl of reverse transcriptase SuperScript II RNase H^− (SUPERase-In, 20 U/μl, Ambion, Art. n° 2694, USA) were added (final volume 20 μl). […] The sample was then kept in the freezer at −20° C. until further use.
The real-time PCR was performed according to the TaqMane method in 96 well plates (96WP) using assays-on-demand primer and probes (SVCT1: Hs00195277_ml, SVCT2:, Hs00192765_ml, 18S-rRNA: 4310893E, GAPDH: 4310884E Applied Biosystems, USA). Analysis was done in triplicate using a master mix (3.5×) which contained 43.7 μl TaqMan® 2× Universal PCR master mix (Applied Biosystems, USA), 4.4 μl assays-on-demand primers and probes, 21.9 μl nuclease-free water and 17.5 μl cDNA (87.5 ng=[…] per replicate). Triplicates of 25 μl master mix were loaded on a 96 well ABI PRISM reaction plate (Applied Biosystems, USA), covered with a transparent optical adhesive cover and centrifuged three times at 200 rpm for 1 min or until all air-bubbles had been removed. The PCR reaction was then performed in the ABI PRISMS 7000 Sequence Detection System (Applied Biosystems, USA) using the following temperature program: activation of the enzyme: 2 min at 50° C.; denaturation: 10 min at 95° C. and 40 cycles target amplification: 15 sec […] at 95° C. and 1 min extension at 60° C.

HaCaT cells = experiment: 14C-labelled ascorbic acid up-take in HaCaT cells (oxidative stress model); type: cell-based, human; conditions: for ascorbic acid up-take in the oxidative stress model: similar conditions as for FeCl3, data not shown

For `Oc1ccc(C2COc3cc(O)ccc3C2)cc1` (racemic) [equol, (R,S)-equol], the “influence on expression” value (SVCT1) was “did not show any influence”.
For `COc1cc(/C=C/C(=O)CC(=O)/C=C/c2ccc(O)c(OC)c2)ccc1O` [curcumin], the “influence on expression” value (SVCT1) was “did not show any influence”.
In the case of `[Cl][Fe]([Cl])[Cl]` [FeCl3], the “Vitamin C uptake by the cell” value (HaCaT cells; iron salt treated cells) is reported as “enlarged”.
In the case of “(−) epigallocatechin gallate [(−) epigallocatechin gallate (EGCg)]”, the “influence on expression” value (SVCT1) is reported as “did not show any influence”.
For `CC1=C(/C=C/C(C)=C/C=C/C(C)=C/C(=O)O)C(C)(C)CCC1` [all-trans retinoic acid], the “transcription of SVCT1 mRNA” value (SVCT1) was “significantly down-regulated”.
With `NCCCC[C@H](N)C(=O)O` [lysine] the “ascorbic acid up-take in the oxidative stress model” value (“ascorbic acid up-take” for short) (HaCaT cells) was “increase ascorbic acid up-take”.
For `CC(=O)N[C@@H](CS)C(=O)O` [N-acetyl-cysteine], the “ascorbic acid up-take” value (HaCaT cells) was “increase ascorbic acid up-take”.
For `O=c1c(-c2ccc(O)cc2)coc2cc(O)cc(O)c12` [genistein], the “influence on expression” value (SVCT1) was “did not show any influence”.
`[Cl-].[Cl-].[Zn+2]` [ZnCl2] was tested, and the “transcription of SVCT1 mRNA” value (SVCT1) was “significantly down-regulated”.
With `C[S+]([O-])CCCCN=C=S` (stereo not shown) [sulforaphane] the “transcription of SVCT1 mRNA” value (SVCT1) was “significantly down-regulated”.
`N[C@@H](CCC(=O)N[C@@H](CS)C(=O)NCC(=O)O)C(=O)O` [glutathione] was tested, and the “ascorbic acid up-take” value (HaCaT cells) was “increase ascorbic acid up-take”.
In the case of `O=c1c(O)c(-c2ccc(O)c(O)c2)oc2cc(O)cc(O)c12` [quercitin, quercetin], the “influence on expression” value (SVCT1) is reported as “did not show any influence”.
In the case of `COc1ccc([C@@H]2CC(=O)c3c(O)cc(O)cc3O2)cc1O` [hesperetin/hesperidin, hesperetin], the “influence on expression” value (SVCT1) is reported as “did not show any influence”.
